# Reference: PubChem BioAssay AID248 (DTP/NCI, 2004)
# Toxic doses and inconclusive results are not listed.
# Tested on: L1210 leukemia ip in BDF1 mice, survival T/C
# Assay: NCI In Vivo Anticancer Drug Screen. Data for tumor model L1210 Leukemia (intraperitoneal) in B6D2F1 (BDF1) mice
# Settings: endpoint: mean survival time, higher = longer survival
# Outline: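 Tumor was transplanted into mice, which were then dosed with test compound or vehicle alone. Survival was recorded for each group, and the treated figure was expressed relative to the control figure.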
# [1] = dose: 100.0 mg/kg/injection, schedule: Q01DX009 (ip), vehicle: Klucel (hydroxypropylcellulose) (HPC)
# [2] = dose: 100.0 mg/kg/injection, schedule: Q04DX003 (ip), vehicle: Klucel (hydroxypropylcellulose) (HPC)
# [3] = dose: 200.0 mg/kg/injection, schedule: Q01DX009 (ip), vehicle: Klucel (hydroxypropylcellulose) (HPC)
# [4] = dose: 200.0 mg/kg/injection, schedule: Q04DX003 (ip), vehicle: Klucel (hydroxypropylcellulose) (HPC)
# [5] = dose: 400.0 mg/kg/injection, schedule: Q01DX009 (ip), vehicle: Klucel (hydroxypropylcellulose) (HPC)
# [6] = dose: 400.0 mg/kg/injection, schedule: Q04DX003 (ip), vehicle: Klucel (hydroxypropylcellulose) (HPC)
# [7] = dose: 100.0 mg/kg/injection, schedule: Q01DX009 (ip), vehicle: saline with Tween-80
# [8] = dose: 100.0 mg/kg/injection, schedule: Q04DX003 (ip), vehicle: saline with Tween-80
# [9] = dose: 200.0 mg/kg/injection, schedule: Q01DX009 (ip), vehicle: saline with Tween-80
# [10] = dose: 200.0 mg/kg/injection, schedule: Q04DX003 (ip), vehicle: saline with Tween-80
# [11] = dose: 400.0 mg/kg/injection, schedule: Q01DX009 (ip), vehicle: saline with Tween-80
# [12] = dose: 400.0 mg/kg/injection, schedule: Q04DX003 (ip), vehicle: saline with Tween-80
structure (smiles),measurement,setting,value
CNc1nc(SCc2ccc(F)cc2)ncc1C,T/C,"dose: 25.0 mg/kg/injection, schedule: Q01DX Z (ip), vehicle: methylcellulose (MC)",96 % of control
same,T/C,"dose: 50.0 mg/kg/injection, schedule: Q01DX Z (ip), vehicle: methylcellulose (MC)",103 % of control
COc1ccc(C=O)c(O)c1,T/C,[1],92 % of control
same,T/C,[2],97 % of control
same,T/C,[3],103 % of control
same,T/C,[4],101 % of control
same,T/C,[5],95 % of control
same,T/C,[6],105 % of control
O=C(O)c1c(F)c(F)c(Br)c(F)c1F,T/C,"dose: 25.6 mg/kg/injection, schedule: Q04DX002 (ip), vehicle: saline with Tween-80",168 % of control
same,T/C,"dose: 64.0 mg/kg/injection, schedule: Q04DX002 (ip), vehicle: saline with Tween-80",91 % of control
same,T/C,"dose: 160.0 mg/kg/injection, schedule: Q04DX002 (ip), vehicle: saline with Tween-80",94 % of control
same,T/C,"dose: 400.0 mg/kg/injection, schedule: Q04DX002 (ip), vehicle: saline with Tween-80",94 % of control
CCCC(=O)c1ccc2oc3ccccc3c2c1,T/C,[1],100 % of control
same,T/C,[2],102 % of control
same,T/C,[3],94 % of control
same,T/C,[4],102 % of control
same,T/C,[5],96 % of control
same,T/C,[6],98 % of control
CCCCCCCCN1C(=O)C2C(C1=O)C1(Cl)C(Cl)=C(Cl)C2(Cl)C1(Cl)Cl (stereo not drawn),T/C,"dose: 100.0 mg/kg/injection, schedule: Q01DX009 (ip), vehicle: saline",95 % of control
same,T/C,"dose: 200.0 mg/kg/injection, schedule: Q01DX009 (ip), vehicle: saline",97 % of control
same,T/C,"dose: 400.0 mg/kg/injection, schedule: Q01DX009 (ip), vehicle: saline",93 % of control
BrCC(Br)CBr,T/C,"dose: 50.0 mg/kg/injection, schedule: Q01DX009 (ip), vehicle: saline with Tween-80",94 % of control
same,T/C,[7],91 % of control
same,T/C,[8],94 % of control
same,T/C,[9],98 % of control
same,T/C,[10],102 % of control
O=[N+]([O-])c1ccc(NCc2ccccc2)c2c1no[n+]2[O-],T/C,"dose: 37.5 mg/kg/injection, schedule: Q04DX003 (ip), vehicle: saline with Tween-80",100 % of control
same,T/C,"dose: 75.0 mg/kg/injection, schedule: Q04DX003 (ip), vehicle: saline with Tween-80",106 % of control
same,T/C,"dose: 150.0 mg/kg/injection, schedule: Q04DX003 (ip), vehicle: saline with Tween-80",100 % of control
O=C1C=CC(=O)c2[nH]c(=O)ccc21,T/C,"dose: 5.0 mg/kg/injection, schedule: Q01DX001 (ip), vehicle: saline",104 % of control
same,T/C,"dose: 10.0 mg/kg/injection, schedule: Q01DX001 (ip), vehicle: saline",107 % of control
CCCCCCC(C)O[Si](C)c1ccc(C)cc1 (stereo not drawn),T/C,[7],103 % of control
same,T/C,[8],113 % of control
same,T/C,[9],90 % of control
same,T/C,[10],97 % of control
same,T/C,[11],97 % of control
same,T/C,[12],87 % of control
COc1cc2c(cc1OC)C1Cc3ccc(OC)c(OC)c3CN1CC2 (stereo not drawn),T/C,"dose: 50.0 mg/kg/injection, schedule: Q04DX003 (ip), vehicle: saline with Tween-80",86 % of control
same,T/C,"dose: 100.0 mg/kg/injection, schedule: Q04DX002 (ip), vehicle: Klucel (hydroxypropylcellulose) (HPC)",87 % of control
same,T/C,[8],116 % of control
same,T/C,"dose: 200.0 mg/kg/injection, schedule: Q04DX002 (ip), vehicle: Klucel (hydroxypropylcellulose) (HPC)",103 % of control
same,T/C,[10],94 % of control
c1ccc2c(c1)c1c(n2N2CCCCC2)CCC1,T/C,"dose: 100.0 mg/kg/injection, schedule: Q04DX002 (ip), vehicle: saline with Tween-80",90 % of control
same,T/C,"dose: 200.0 mg/kg/injection, schedule: Q04DX002 (ip), vehicle: saline with Tween-80",95 % of control
S=C(S)NC1c2ccccc2-c2ccccc21 (tested in a mixture with another compound),T/C,"dose: 100.0 mg/kg/injection, schedule: Q01DX001 (ip), vehicle: carboxymethylcellulose (CMC)",94 % of control
same,T/C,"dose: 200.0 mg/kg/injection, schedule: Q01DX001 (ip), vehicle: carboxymethylcellulose (CMC)",90 % of control
same,T/C,"dose: 400.0 mg/kg/injection, schedule: Q01DX001 (ip), vehicle: carboxymethylcellulose (CMC)",96 % of control
COc1ccc(OCC(=O)O)c(C=O)c1,T/C,[7],95 % of control
same,T/C,[8],115 % of control
same,T/C,[9],93 % of control
same,T/C,[10],96 % of control
same,T/C,[11],91 % of control
same,T/C,[12],106 % of control
